The nature of data set [1]: (§1) AUC (0 to 24 hrs) in Sprague-Dawley rat at 10 mg/kg, po by LC-MS/MS analysis. It is filed as ADME, organism-based. Further details: dose 10 mg/kg, time < 24 hr, route oral. Conditions: Sprague-Dawley, in vivo.
Data set [2] in a line: (§2) Cmax in Sprague-Dawley rat at 10 mg/kg, po by LC-MS/MS analysis. It is filed as ADME, organism-based. Further details: dose 10 mg/kg, route oral. Conditions: Sprague-Dawley, in vivo.
A short description of data set [3]: Oral bioavailability in Sprague-Dawley rat at 10 mg/kg by LC-MS/MS analysis. Type of data set: ADME, organism-based. Particulars: in vivo.
Data set [4] in a line: Thermodynamic equilibrium aqueous solubility in pH 1 solution at 1 mg/ml after 15 to 24 hrs by UV-HPLC method. Type of data set: physicochemical. Particulars: aqueous pH 1 solution, read-out: Therm_solubility.
Data set [5] in a line: Thermodynamic equilibrium aqueous solubility in pH 6.5 solution at 1 mg/ml after 15 to 24 hrs by UV-HPLC method. Type of data set: physicochemical. Particulars: for solubility thermodynamic: aqueous pH 6.5 solution, read-out: Therm_solubility.
The test system of data set [6] is Rattus norvegicus. The description is as §1. Particulars: in vivo, 24 h, BLD = below limit of detection. Type of data set: ADME, organism-based. Further details: dose 10 mg/kg, time < 24 hr, route oral.
For data set [7], the system named is Rattus norvegicus. The description is as §2. It is filed as ADME, organism-based. Also on record: dose 10 mg/kg, route oral. Conditions: in vivo, BLD = below limit of detection.
In the next data set the test system is Plasma. The data set is described as follows: Prodrug activation in Sprague-Dawley rat assessed as BMS-665053 level in plasma at 10 mg/kg, po by LC-MS/MS analysis. Type of data set: organism-based. Conditions: in vivo.
Data set [8] in a line: Stability in pH 1 buffer after 8 hrs by HPLC method. It is filed as physicochemical. Conditions: pH 1, 8 h.
Data set [9] in a line: Stability in pH 7 buffer after 8 hrs by HPLC method. Type of data set: physicochemical. Particulars: pH 7, 8 h.
Data set [10] has as its target T1, Alkaline phosphatase, tissue-nonspecific isozyme (Homo sapiens, UniProt P05186).
T1 sequence (P05186 whole entry): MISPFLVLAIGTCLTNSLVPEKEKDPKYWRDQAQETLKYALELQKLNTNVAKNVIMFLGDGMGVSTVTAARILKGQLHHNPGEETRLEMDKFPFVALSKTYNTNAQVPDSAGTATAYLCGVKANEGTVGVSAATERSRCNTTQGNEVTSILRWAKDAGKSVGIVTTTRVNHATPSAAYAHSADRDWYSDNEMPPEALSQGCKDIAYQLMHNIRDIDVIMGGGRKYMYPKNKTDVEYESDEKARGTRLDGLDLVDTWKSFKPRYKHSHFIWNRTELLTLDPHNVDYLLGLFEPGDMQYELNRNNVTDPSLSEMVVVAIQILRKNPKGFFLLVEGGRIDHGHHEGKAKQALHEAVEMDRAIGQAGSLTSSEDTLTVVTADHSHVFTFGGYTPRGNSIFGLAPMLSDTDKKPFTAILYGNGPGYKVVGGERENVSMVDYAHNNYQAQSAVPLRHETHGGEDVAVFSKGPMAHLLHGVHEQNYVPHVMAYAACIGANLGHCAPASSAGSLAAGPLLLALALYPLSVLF
In words: Drug metabolism treated with 3-(Phosphonooxy)propyl (S)-(6-chloro-4-(1-cyclopropylethyl)-3-oxo-3,4-dihydropyrazin-2-yl)(2,6-dichloro-4-(difluoromethoxy)phenyl)carbamate, disodium salt assessed as alkaline phosphatase (unknown origin)-mediated compound conversion after 120 mins by LC-MS analysis. Type of data set: ADME. Conditions: 2 h.

For data set [11], the target named is T1, Alkaline phosphatase, tissue-nonspecific isozyme. In words: Drug metabolism treated with 2,2-Dimethyl-3-(phosphonooxy)propyl (S)-(6-chloro-4-(1-cyclopropylethyl)-3-oxo-3,4-dihydropyrazin-2-yl)(2,6-dichloro-4-(difluoromethoxy)phenyl)carbamate, disodium salt assessed as alkaline phosphatase (unknown origin)-mediated compound conversion after 120 mins by LC-MS analysis. It is filed as ADME. Particulars: 2 h.

Data set [12] is described as follows: Stability in pH 1 buffer by HPLC method. It is filed as physicochemical.
The nature of data set [13]: Prodrug activation in pH 7 buffer assessed as BMS-665053 formation after 10 mins by HPLC method.

≈ marks a conversion by molar mass, not a printed value.

On to `C[C@@H](C1CC1)n1cc(Cl)nc(N(COP(=O)([O-])[O-])c2c(Cl)cc(OC(F)F)cc2Cl)c1=O.[Na+].[Na+]`, for which the AUC(0-t) (as a rule, exposure summed from dosing to a finite time, without extrapolation to infinity) at 24 h in data set [1] worked out at 5.99 µM·h. The maximum concentration (Cmax) (usually the highest concentration seen after dosing) in [2] was 2150 nM. Also, the bioavailability (in general, dose-corrected exposure relative to a reference, in per cent) in data set [3] was found to be 25%.
As to `CC(C)[C@H](N)C(=O)OCOC(=O)N(c1c(Cl)cc(OC(F)F)cc1Cl)c1nc(Cl)cn([C@@H](C)C2CC2)c1=O.Cl`, the solubility thermodynamic in data set [4] is 1820 µg/mL; in data set [5], 10 µg/mL. Moreover, the exposure AUC(0-t) at 24 h in data set [1] amounted to 7.37 µM·h. Besides, the peak level in [2] (Cmax) was 740 nM. The bioavailability in data set [3] amounted to 32%.
As to `C[C@@H](C1CC1)n1cc(Cl)nc(N(C(=O)OCOC(=O)CN(C)C)c2c(Cl)cc(OC(F)F)cc2Cl)c1=O`, the solubility thermodynamic in [4] worked out at 1720 µg/mL (≈ 2950 µM); in data set [5] it was 530 µg/mL (≈ 908 µM). Further, the AUC result with Rattus norvegicus [6] is “Bld”. Also, the highest concentration (Cmax) result in the data set with Rattus norvegicus [7] is listed as “Bld”. Moreover, in the data set on Plasma, the Drug metabolism entry is reported as “Metabolite_Notdetected”.
In the case of `C[C@@H](C1CC1)n1cc(Cl)nc(N(C(=O)OCOC(=O)CCN)c2c(Cl)cc(OC(F)F)cc2Cl)c1=O.Cl`, the solubility thermodynamic in data set [4] is 1350 µg/mL; in data set [5] it was 30 µg/mL. This molecule showed an AUC(0-t) at 24 h in [1] of 6.32 µM·h. In data set [2], this molecule yielded a Cmax of 490 nM. Further, the bioavailability in data set [3] worked out at 27%.
As for `C[C@@H](C1CC1)n1cc(Cl)nc(N(C(=O)OCCCOP(=O)([O-])[O-])c2c(Cl)cc(OC(F)F)cc2Cl)c1=O.[Na+].[Na+]`, the solubility thermodynamic turned out to be 4 µg/mL in [4] and 1500 µg/mL in [5]. The AUC(0-t) at 24 h in data set [1] was 4.23 µM·h. Moreover, the Cmax in [2] is 295 nM. Besides, in [3], the bioavailability is 18%. Also, the Stability entry in data set [8] and in data set [9] was “Stable” throughout.
For `C[C@@H](C1CC1)n1cc(Cl)nc(N(C(=O)OCCCO)c2c(Cl)cc(OC(F)F)cc2Cl)c1=O`, the Drug metabolism result in [10] and in [11] was “Metabolite_Detected” each time.
Consider `C[C@@H](C1CC1)n1cc(Cl)nc(N(C(=O)OCOP(=O)(O)O)c2c(Cl)cc(OC(F)F)cc2Cl)c1=O`, for which the solubility thermodynamic in data set [4] came out at 338 µg/mL (≈ 584 µM). The Therm_solubility entry in data set [5] (buffer) was “Nd(Unstable)”. In data set [1], this molecule had an AUC(0-t) at 24 h of 3.99 µM·h. In data set [2], this molecule gave a Cmax of 460 nM. In addition, the bioavailability in data set [3] worked out at 17%. Also, the Drug metabolism with Plasma is reported as 23 %ID; in [13] it was “Metabolite detected”. In [12], the Stability result was “Stable”.
For `C[C@@H](C1CC1)n1cc(Cl)nc(Nc2c(Cl)cc(OC(F)F)cc2Cl)c1=O`, the solubility thermodynamic in data set [4] is 7 µg/mL (≈ 16.5 µM); in data set [5], less than 1 µg/mL. The molecule also had an AUC(0-t) at 24 h in data set [1] of 1.26 µM·h.
For `C[C@H](N)C(=O)OCOC(=O)N(c1c(Cl)cc(OC(F)F)cc1Cl)c1nc(Cl)cn([C@@H](C)C2CC2)c1=O.Cl`, the solubility thermodynamic in [4] stood at 370 µg/mL; in [5], 5 µg/mL. Moreover, in data set [1], the AUC(0-t) at 24 h is 8.25 µM·h. This molecule also came in with a Cmax in data set [2] of 730 nM. This molecule also showed a bioavailability in [3] of 36%.
With `C[C@@H](C1CC1)n1cc(Cl)nc(N(C(=O)OCC(C)(C)COP(=O)([O-])[O-])c2c(Cl)cc(OC(F)F)cc2Cl)c1=O.[Na+].[Na+]`, the values for the solubility thermodynamic in data set [4] and in data set [5] were 50 µg/mL and more than 1500 µg/mL, respectively. Moreover, the AUC entry in the data set with Rattus norvegicus [6] was “Bld”. Further, the Cmax entry in the data set with Rattus norvegicus [7] is listed as “Bld”. Also, in the data set on Plasma, the Drug metabolism entry is listed as “Metabolite_Notdetected”.

(Values after ChEMBL document CHEMBL3997831, “Synthesis and evaluation of prodrugs of corticotropin-releasing factor-1 (CRF1) receptor antagonist BMS-665053 leading to improved oral bioavailability” (Bioorg Med Chem Lett, 2017).)
